{
  "source": "paper PMC12281424",
  "about": "“A Rac-specific competitive inhibitor of guanine nucleotide binding reduces metastasis in triple-negative breast cancer” (Cell Reports Medicine, 2025)",
  "key": {"Muscarinic M4": {"biological_target": "Muscarinic M4 (Homo sapiens, UniProt P08173)", "sequence (P08173 whole entry)": "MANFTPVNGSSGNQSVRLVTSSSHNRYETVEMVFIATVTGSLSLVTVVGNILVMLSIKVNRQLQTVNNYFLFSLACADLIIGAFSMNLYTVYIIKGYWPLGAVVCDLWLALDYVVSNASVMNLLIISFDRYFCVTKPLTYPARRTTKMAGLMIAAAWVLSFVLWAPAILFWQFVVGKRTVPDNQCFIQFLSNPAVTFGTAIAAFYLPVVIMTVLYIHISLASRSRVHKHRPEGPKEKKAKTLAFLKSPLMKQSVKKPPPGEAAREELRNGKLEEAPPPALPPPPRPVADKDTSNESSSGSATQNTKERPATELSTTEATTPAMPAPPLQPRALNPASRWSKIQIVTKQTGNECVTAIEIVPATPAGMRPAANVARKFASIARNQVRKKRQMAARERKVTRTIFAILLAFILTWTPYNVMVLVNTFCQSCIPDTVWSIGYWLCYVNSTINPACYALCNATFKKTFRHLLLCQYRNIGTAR", "test": "Safety screen", "type": "binding", "method": "(§1) Blood cell counts, kinase profiler, safety screen, bacterial cytotoxicity, Ames, micronucleus assays were performed by the company Eurofins (France)."}, "Ron(h)": {"biological_target": "Ron(h) (Homo sapiens, UniProt Q04912)", "test": "Kinase Profiler", "type": "biochemical", "method": "(§2) Blood cell counts, kinase profiler, safety screen, bacterial cytotoxicity, Ames, micronucleus assays were performed by the company Eurofins (France). The kinase profiler was performed by the company Eurofins (Discovery, Panlab and Cerep)."}, "SAPK2a(h)": {"biological_target": "SAPK2a(h) (Homo sapiens, UniProt Q16539)", "test": "Kinase Profiler", "type": "biochemical", "method": "(§3) The kinase profiler was performed by the company Eurofins (Discovery, Panlab and Cerep)."}, "MELK(h)": {"biological_target": "MELK(h) (Homo sapiens, UniProt Q14680)", "sequence (Q14680 whole entry)": "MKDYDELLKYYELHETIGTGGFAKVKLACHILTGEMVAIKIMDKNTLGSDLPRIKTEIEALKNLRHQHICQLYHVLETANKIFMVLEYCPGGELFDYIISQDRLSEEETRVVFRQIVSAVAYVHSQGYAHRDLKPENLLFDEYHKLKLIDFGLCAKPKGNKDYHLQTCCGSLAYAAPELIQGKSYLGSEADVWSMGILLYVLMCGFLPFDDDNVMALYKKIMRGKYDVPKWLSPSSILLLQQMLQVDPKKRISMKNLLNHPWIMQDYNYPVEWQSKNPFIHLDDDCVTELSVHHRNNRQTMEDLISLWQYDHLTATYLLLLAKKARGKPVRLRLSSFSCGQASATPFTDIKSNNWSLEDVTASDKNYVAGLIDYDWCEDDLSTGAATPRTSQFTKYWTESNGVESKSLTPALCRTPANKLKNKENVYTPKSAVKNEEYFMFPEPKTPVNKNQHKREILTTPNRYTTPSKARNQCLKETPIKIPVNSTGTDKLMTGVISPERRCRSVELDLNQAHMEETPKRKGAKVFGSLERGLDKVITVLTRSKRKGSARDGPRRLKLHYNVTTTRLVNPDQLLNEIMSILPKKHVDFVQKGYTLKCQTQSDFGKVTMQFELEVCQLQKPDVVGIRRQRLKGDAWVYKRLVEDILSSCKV", "test": "Kinase Profiler", "type": "biochemical", "method": "as §3"}, "[1]": {"biological_target": "Serotonin (5-Hydroxytryptamine) 5-HT2B (Homo sapiens, UniProt P41595)", "test": "Safety screen", "type": "binding", "method": "as §1"}, "Blk(m)": {"biological_target": "Blk(m) (Mus musculus, UniProt P16277)", "test": "Kinase Profiler", "type": "biochemical", "method": "as §2"}, "GRK1(h)": {"biological_target": "GRK1(h) (Homo sapiens, UniProt Q15835)", "test": "Kinase Profiler", "type": "biochemical", "method": "as §2"}, "CK1γ2(h)": {"biological_target": "CK1γ2(h) (Homo sapiens, UniProt P78368)", "sequence (P78368 whole entry)": "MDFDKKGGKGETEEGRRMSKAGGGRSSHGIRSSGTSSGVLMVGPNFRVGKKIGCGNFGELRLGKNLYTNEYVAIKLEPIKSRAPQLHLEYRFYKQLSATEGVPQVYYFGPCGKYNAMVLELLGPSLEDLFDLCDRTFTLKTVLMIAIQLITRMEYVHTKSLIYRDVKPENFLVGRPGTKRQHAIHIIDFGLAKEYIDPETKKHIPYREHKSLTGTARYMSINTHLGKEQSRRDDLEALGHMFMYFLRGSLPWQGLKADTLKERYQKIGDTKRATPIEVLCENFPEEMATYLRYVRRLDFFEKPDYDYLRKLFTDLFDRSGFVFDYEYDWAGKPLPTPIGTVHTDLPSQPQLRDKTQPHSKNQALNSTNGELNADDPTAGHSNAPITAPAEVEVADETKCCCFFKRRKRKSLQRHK", "test": "Kinase Profiler", "type": "biochemical", "method": "as §2"}, "cKit(V560G)(h)": {"biological_target": "cKit(V560G)(h) (Homo sapiens, UniProt P10721, V560G)", "test": "Kinase Profiler", "type": "biochemical", "method": "as §2"}, "TA1535": {"system": "TA1535", "test": "Ames fluctuation test (5th group)", "type": "cell-based", "description": "Data S3. Ames-fluctuation assay-A41.\nTest Concentration Count Positive Significance Fisher Exact Test"}, "CDK18/cyclinY(h)": {"biological_target": "CDK18/cyclinY(h) (Homo sapiens, UniProt Q07002)", "sequence (Q07002 whole entry)": "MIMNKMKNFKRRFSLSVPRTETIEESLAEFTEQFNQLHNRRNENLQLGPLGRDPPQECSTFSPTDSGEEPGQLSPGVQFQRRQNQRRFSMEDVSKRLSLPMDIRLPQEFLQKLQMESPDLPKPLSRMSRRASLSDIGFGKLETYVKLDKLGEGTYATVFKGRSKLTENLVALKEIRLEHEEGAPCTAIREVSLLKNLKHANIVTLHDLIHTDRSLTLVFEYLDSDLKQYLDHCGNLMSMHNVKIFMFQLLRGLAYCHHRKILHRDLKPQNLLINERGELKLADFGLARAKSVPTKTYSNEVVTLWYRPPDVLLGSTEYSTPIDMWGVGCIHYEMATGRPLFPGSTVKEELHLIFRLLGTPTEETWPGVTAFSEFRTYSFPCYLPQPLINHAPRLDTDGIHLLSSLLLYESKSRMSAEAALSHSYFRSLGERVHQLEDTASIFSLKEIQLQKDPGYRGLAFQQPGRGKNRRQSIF", "sequence (Q8ND76 whole entry partner)": "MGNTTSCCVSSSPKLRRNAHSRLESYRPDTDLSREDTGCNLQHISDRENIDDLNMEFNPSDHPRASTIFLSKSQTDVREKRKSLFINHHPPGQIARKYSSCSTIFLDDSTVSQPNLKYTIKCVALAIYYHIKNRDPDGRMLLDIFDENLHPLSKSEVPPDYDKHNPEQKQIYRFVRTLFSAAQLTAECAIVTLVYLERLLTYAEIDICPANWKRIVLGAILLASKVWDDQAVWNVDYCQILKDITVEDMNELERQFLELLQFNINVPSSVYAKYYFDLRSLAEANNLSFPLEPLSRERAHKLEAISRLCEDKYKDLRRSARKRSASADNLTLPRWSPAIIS", "test": "Kinase Profiler", "type": "biochemical", "method": "as §3"}, "[2]": {"biological_target": "Serotonin (5-Hydroxytryptamine) 5-HT3 (Homo sapiens, UniProt P46098)", "test": "Safety screen", "type": "binding", "method": "as §1"}, "BrSK2(h)": {"biological_target": "BrSK2(h) (Homo sapiens, UniProt Q8IWQ3)", "sequence (Q8IWQ3 whole entry)": "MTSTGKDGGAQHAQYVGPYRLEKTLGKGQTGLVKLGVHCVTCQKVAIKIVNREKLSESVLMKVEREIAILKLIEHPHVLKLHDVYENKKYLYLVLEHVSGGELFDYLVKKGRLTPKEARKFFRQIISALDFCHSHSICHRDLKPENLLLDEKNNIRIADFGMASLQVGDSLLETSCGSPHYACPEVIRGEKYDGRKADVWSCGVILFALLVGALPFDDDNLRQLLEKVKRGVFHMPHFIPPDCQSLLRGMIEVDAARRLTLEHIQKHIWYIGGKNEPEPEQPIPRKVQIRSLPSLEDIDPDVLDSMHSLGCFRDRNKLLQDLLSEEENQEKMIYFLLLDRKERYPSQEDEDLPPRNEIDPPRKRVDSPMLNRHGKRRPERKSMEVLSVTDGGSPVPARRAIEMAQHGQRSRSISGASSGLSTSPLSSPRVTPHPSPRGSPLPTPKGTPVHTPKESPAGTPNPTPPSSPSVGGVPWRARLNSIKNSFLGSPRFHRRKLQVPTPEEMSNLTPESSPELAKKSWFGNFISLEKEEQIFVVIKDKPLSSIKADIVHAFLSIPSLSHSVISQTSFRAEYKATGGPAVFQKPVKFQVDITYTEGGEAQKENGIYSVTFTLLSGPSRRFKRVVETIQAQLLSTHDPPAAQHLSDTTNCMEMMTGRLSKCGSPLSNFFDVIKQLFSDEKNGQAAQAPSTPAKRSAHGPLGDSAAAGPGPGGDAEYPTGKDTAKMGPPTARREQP", "test": "Kinase Profiler", "type": "biochemical", "method": "as §2"}, "Wee1(h)": {"biological_target": "Wee1(h) (Homo sapiens, UniProt P30291)", "test": "Kinase Profiler", "type": "biochemical", "method": "as §3"}, "TAO3(h)": {"biological_target": "TAO3(h) (Homo sapiens, UniProt Q9H2K8)", "test": "Kinase Profiler", "type": "biochemical", "method": "as §2"}, "PAK5(h)": {"biological_target": "PAK5(h) (Homo sapiens, UniProt Q9P286)", "test": "Kinase Profiler", "type": "biochemical", "method": "as §3"}, "Androgen (Testosterone)": {"biological_target": "Androgen (Testosterone) (Homo sapiens, UniProt P10275)", "sequence (P10275 whole entry)": "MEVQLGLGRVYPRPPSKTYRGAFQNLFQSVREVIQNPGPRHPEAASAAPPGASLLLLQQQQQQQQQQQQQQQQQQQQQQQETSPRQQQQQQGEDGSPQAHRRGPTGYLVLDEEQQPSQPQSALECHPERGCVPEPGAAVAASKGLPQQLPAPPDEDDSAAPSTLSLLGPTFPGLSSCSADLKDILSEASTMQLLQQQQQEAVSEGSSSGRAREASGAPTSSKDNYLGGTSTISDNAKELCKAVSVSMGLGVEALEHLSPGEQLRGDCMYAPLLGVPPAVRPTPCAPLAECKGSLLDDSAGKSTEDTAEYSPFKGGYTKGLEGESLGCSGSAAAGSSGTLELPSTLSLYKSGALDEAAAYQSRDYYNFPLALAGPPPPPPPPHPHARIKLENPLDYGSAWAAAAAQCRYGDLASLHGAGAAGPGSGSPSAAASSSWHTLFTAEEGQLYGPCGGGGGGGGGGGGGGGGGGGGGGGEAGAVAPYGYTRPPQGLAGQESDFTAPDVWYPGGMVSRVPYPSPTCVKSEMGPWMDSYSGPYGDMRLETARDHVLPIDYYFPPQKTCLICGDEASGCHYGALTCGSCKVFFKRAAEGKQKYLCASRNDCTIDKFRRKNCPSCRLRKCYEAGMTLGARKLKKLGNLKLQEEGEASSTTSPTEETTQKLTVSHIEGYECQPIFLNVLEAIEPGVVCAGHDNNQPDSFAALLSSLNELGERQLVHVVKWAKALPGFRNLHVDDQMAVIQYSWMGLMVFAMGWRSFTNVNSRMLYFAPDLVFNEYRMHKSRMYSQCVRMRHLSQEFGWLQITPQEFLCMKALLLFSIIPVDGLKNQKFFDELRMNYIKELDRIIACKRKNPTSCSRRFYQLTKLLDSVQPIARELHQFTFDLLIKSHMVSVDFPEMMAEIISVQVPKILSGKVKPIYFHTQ", "test": "Safety screen", "type": "binding", "method": "as §2"}, "IRAK1(h)": {"biological_target": "IRAK1(h) (Homo sapiens, UniProt P51617)", "test": "Kinase Profiler", "type": "biochemical", "method": "as §2"}, "PKCθ(h)": {"biological_target": "PKCθ(h) (Homo sapiens, UniProt Q04759)", "test": "Kinase Profiler", "type": "biochemical", "method": "as §3"}, "EphA8(h)": {"biological_target": "EphA8(h) (Homo sapiens, UniProt P29322)", "test": "Kinase Profiler", "type": "biochemical", "method": "as §2"}, "CHK2(h)": {"biological_target": "CHK2(h) (Homo sapiens, UniProt O96017)", "sequence (O96017 whole entry)": "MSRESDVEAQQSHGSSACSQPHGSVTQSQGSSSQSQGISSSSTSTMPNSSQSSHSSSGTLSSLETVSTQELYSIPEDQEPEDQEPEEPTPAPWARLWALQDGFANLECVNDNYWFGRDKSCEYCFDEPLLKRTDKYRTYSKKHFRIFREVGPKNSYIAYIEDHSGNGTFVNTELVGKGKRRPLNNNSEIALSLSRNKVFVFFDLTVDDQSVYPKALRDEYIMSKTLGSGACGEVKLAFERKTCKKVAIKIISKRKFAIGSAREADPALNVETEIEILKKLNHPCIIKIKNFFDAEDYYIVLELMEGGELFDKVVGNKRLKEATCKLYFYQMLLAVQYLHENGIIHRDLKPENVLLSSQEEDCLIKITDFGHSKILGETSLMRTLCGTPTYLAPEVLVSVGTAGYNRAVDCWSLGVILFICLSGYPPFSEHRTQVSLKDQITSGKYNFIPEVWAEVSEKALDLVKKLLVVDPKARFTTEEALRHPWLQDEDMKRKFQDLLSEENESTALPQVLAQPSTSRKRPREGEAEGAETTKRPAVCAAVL", "test": "Kinase Profiler", "type": "biochemical", "method": "as §3"}, "MDA-MB-468 spheroids": {"system": "MDA-MB-468 spheroids", "test": "3D invasion assay", "type": "cell-based", "settings": "10^-5 M", "protocol": "Figure 5 A41 decreases growth and invasiveness of TNBC cells in vitro (A) Representative images of RAC-GTP levels (red) in MDA-MB-468 Luc cells in the absence (CTL) and presence of EHT1864, NSC23766, or A41 (1 h at 10 μM) (left). Luciferase (Luc, green) was used to detect the cells. RAC-GTP mean fluorescence intensity was quantified inside the cell area (right) (n = 31–37 cells from 3 independent experiments; ∗p < 0.05, ∗∗∗p < 0.001) (scale bars: 10 μm). […] (C) Quantification of colony number of indicated cancer cell lines in the presence of A41 (10 μM) expressed as the percentage of control in the absence of A41. Results shown are representative of N > 3 independent experiments. (D) Immunoblot analysis and corresponding quantification of AKT and P44/42 expression and phosphorylation (pAKT, p44/42) in MDA-MB-468 Luc cells in the absence (−) and presence of NSC23766 or A41 (1 h at 10^−5 M). […] (E) 3D invasion assay of MDA-MB-468 Luc and cancer-associated fibroblasts (CAFs) and corresponding quantification (scale bars: 200 μm). […]\n3D-spheroids were obtained, according the protocol previously described,[62] by re-suspending cells at a concentration of 1.25 × 10^4 cells/ml in 20% Methyl-cellulose/80% DMEM 10% FBS. […] Invasion was monitored by fully automated Dmi6000b Wide Field Fluorescence Microscope (Leica Microsystems, Wetzlar, Germany) during 48h."}, "PIP4K2a(h)": {"biological_target": "PIP4K2a(h) (Homo sapiens, UniProt P48426)", "sequence (P48426 whole entry)": "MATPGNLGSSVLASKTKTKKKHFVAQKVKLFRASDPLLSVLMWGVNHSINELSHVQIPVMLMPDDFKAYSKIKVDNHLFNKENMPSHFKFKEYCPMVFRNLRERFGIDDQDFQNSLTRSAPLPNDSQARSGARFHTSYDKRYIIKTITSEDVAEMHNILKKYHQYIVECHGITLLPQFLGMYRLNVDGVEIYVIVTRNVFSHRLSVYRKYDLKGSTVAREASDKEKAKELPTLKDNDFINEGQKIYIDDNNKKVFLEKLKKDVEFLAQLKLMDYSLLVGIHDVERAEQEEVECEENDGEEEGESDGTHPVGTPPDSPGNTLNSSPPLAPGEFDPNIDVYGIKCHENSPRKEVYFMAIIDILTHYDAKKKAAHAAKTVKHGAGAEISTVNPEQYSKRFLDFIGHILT", "test": "Kinase Profiler", "type": "biochemical", "method": "as §3"}, "CSK(h)": {"biological_target": "CSK(h) (Homo sapiens, UniProt P41240)", "test": "Kinase Profiler", "type": "biochemical", "method": "as §3"}, "DAPK1(h)": {"biological_target": "DAPK1(h) (Homo sapiens, UniProt P53355)", "test": "Kinase Profiler", "type": "biochemical", "method": "as §3"}},
  "data": [
    {"smiles": "COc1ccc(OC)c(NS(=O)(=O)c2ccc(NC(=O)CCSc3ccc(C)cc3)cc2)c1", "note": "[Compound A41]", "values": [
      {"measurement": "% inh.", "setting": "Muscarinic M4", "value": -1, "unit": "%"},
      {"measurement": "Activity(%)", "setting": "Ron(h)", "value": 110, "unit": "%"},
      {"measurement": "Activity(%)", "setting": "SAPK2a(h)", "value": 100, "unit": "%"},
      {"measurement": "Activity(%)", "setting": "MELK(h)", "value": 107, "unit": "%"},
      {"measurement": "% inh.", "setting": "[1]", "value": 90, "unit": "%"},
      {"measurement": "Activity(%)", "setting": "Blk(m)", "value": 87, "unit": "%"},
      {"measurement": "Activity(%)", "setting": "GRK1(h)", "value": 103, "unit": "%"},
      {"measurement": "Activity(%)", "setting": "CK1γ2(h)", "value": 112, "unit": "%"},
      {"measurement": "Activity(%)", "setting": "cKit(V560G)(h)", "value": 115, "unit": "%"},
      {"measurement": "Count Positive (# of wells)", "setting": "TA1535; - S9, 1.0E-04 M", "value": 0},
      {"measurement": "Count Positive (# of wells)", "setting": "TA1535; - S9, 1.0E-05 M", "value": 2},
      {"measurement": "Count Positive (# of wells)", "setting": "TA1535; - S9, 5.0E-05 M", "value": 0},
      {"measurement": "Count Positive (# of wells)", "setting": "TA1535; - S9, 5.0E-06 M", "value": 0},
      {"measurement": "Activity(%)", "setting": "CDK18/cyclinY(h)", "value": 101, "unit": "%"},
      {"measurement": "% inh.", "setting": "[2]", "value": -2, "unit": "%"},
      {"measurement": "Activity(%)", "setting": "BrSK2(h)", "value": 118, "unit": "%"},
      {"measurement": "Activity(%)", "setting": "Wee1(h)", "value": 112, "unit": "%"},
      {"measurement": "Activity(%)", "setting": "TAO3(h)", "value": 97, "unit": "%"},
      {"measurement": "Activity(%)", "setting": "PAK5(h)", "value": 105, "unit": "%"},
      {"measurement": "% inh.", "setting": "Androgen (Testosterone)", "value": 10, "unit": "%"},
      {"measurement": "Activity(%)", "setting": "IRAK1(h)", "value": 104, "unit": "%"},
      {"measurement": "Activity(%)", "setting": "PKCθ(h)", "value": 114, "unit": "%"},
      {"measurement": "Activity(%)", "setting": "EphA8(h)", "value": 112, "unit": "%"},
      {"measurement": "Activity(%)", "setting": "CHK2(h)", "value": 111, "unit": "%"},
      {"measurement": "size of the spheroids", "setting": "MDA-MB-468 spheroids", "value": "not affected"},
      {"measurement": "migration area of spheroids", "setting": "MDA-MB-468 spheroids; 3D collagen gel", "value": "reduced the migration area"},
      {"measurement": "Activity(%)", "setting": "PIP4K2a(h)", "value": 95, "unit": "%"},
      {"measurement": "Activity(%)", "setting": "CSK(h)", "value": 119, "unit": "%"},
      {"measurement": "Activity(%)", "setting": "DAPK1(h)", "value": 117, "unit": "%"}
    ]}
  ]
}
